Consider 7 compounds from PubChem BioAssay (NCI).

Among the test systems are SF-268 CNS; BT-549 breast; OVCAR-3 ovarian; MDA-MB-231 breast; HOP-92 NSCLC; SK-MEL-5 melanoma; OVCAR-5 ovarian; RXF 393 renal; 786-0 renal; LOX IMVI melanoma.
Test in all cases: growth of human tumour cells (NCI), 48 h

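Where inhibition never reached the appropriate level, the endpoint shown equals the highest concentration tested. Otherwise, values were interpolated linearly from a five-concentration, 48-hour dose response in 96-well plates. The concentration for 50% growth inhibition is given as GI50. Definition used: TGI = concentration required for complete inhibition of growth.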 Bounds are passed on as bounds.

In the case of `COc1cc(C2c3cc4c(cc3[C@H](NC(=O)c3cccs3)C3COC(=O)[C@H]23)OCO4)cc(OC)c1OC` (some centres undefined), the TGI in the experiment on SF-268 CNS is greater than 40.8 µM; with BT-549 breast it was 16.4 µM; in the experiment on OVCAR-3 ovarian it was greater than 100 µM; in the experiment with MDA-MB-231 breast, 0.0128 µM; with HOP-92 NSCLC, 70.3 µM; in the experiment on SK-MEL-5 melanoma, 0.708 µM. The TGI is greater than 95.1 µM in the experiment with OVCAR-5 ovarian, 0.0543 µM with RXF 393 renal, 21.7 µM in the experiment with 786-0 renal and greater than 41 µM with LOX IMVI melanoma.

Consider `C[As](C)Sc1ccnc(S[As](C)C)n1`, for which the GI50 with SF-268 CNS is 7.44 µM; in the experiment with BT-549 breast, 3.78 µM; with OVCAR-3 ovarian, 3.91 µM; in the experiment with MDA-MB-231 breast it was 2.62 µM; in the experiment with HOP-92 NSCLC, 0.774 µM; in the experiment on SK-MEL-5 melanoma it was 2.3 µM. For the same compound, the GI50 in the experiment with OVCAR-5 ovarian was 19.6 µM; with RXF 393 renal, 3.2 µM; in the experiment on 786-0 renal, 5.36 µM; with LOX IMVI melanoma it was 2.76 µM. In addition, the TGI is greater than 39.7 µM in the experiment on SF-268 CNS; 18.2 µM with BT-549 breast; 22 µM in the experiment on OVCAR-3 ovarian; 15.8 µM in the experiment with MDA-MB-231 breast; 5 µM with HOP-92 NSCLC; 10.7 µM in the experiment on SK-MEL-5 melanoma. The TGI in the experiment with OVCAR-5 ovarian is greater than 48.4 µM; in the experiment on RXF 393 renal, 20.1 µM; with 786-0 renal, greater than 40.5 µM; in the experiment with LOX IMVI melanoma, 96.2 µM.

In the case of `O=C(O)c1cc(N/C=C2\C(=O)c3ccccc3OC2O)ccc1O` (centres undefined), the GI50 in the experiment with SF-268 CNS is 24 µg/mL; in the experiment on BT-549 breast, 15 µg/mL; in the experiment on OVCAR-3 ovarian it was 14.6 µg/mL; with MDA-MB-231 breast, 24.5 µg/mL; in the experiment with HOP-92 NSCLC it was 6.73 µg/mL; in the experiment with SK-MEL-5 melanoma, 18 µg/mL. In addition, the GI50 with OVCAR-5 ovarian was 29.3 µg/mL; in the experiment with RXF 393 renal it was 18.5 µg/mL; with 786-0 renal, 30.8 µg/mL; with LOX IMVI melanoma it was 24.7 µg/mL. The TGI stood at 108 µg/mL in the experiment on SF-268 CNS; 71.8 µg/mL in the experiment on BT-549 breast; 47.2 µg/mL in the experiment on OVCAR-3 ovarian; 78.9 µg/mL with MDA-MB-231 breast; 125 µg/mL in the experiment on HOP-92 NSCLC; 39.3 µg/mL in the experiment on SK-MEL-5 melanoma. Further, the TGI worked out at 74.9 µg/mL in the experiment with OVCAR-5 ovarian, 40.1 µg/mL in the experiment with RXF 393 renal, 57.7 µg/mL in the experiment with 786-0 renal and 80.9 µg/mL in the experiment on LOX IMVI melanoma.

Take `COc1cc(C(=O)NC2CCN(C)CC2)ccc1Nc1ncc2c(n1)N(C1CCCC1)CC(F)(F)C(=O)N2C`: the GI50 in the experiment with SF-268 CNS was 0.0487 µM; in the experiment with BT-549 breast, 0.0989 µM; with OVCAR-3 ovarian, less than 0.01 µM; with MDA-MB-231 breast, less than 0.0186 µM; in the experiment with HOP-92 NSCLC, 0.1 µM; in the experiment with SK-MEL-5 melanoma, less than 0.0311 µM. Besides, the GI50 in the experiment on OVCAR-5 ovarian was 0.0188 µM; in the experiment with RXF 393 renal it was 0.054 µM; in the experiment with 786-0 renal, 0.0903 µM; in the experiment on LOX IMVI melanoma it was less than 0.0167 µM. For the same compound, the TGI amounted to 12.5 µM with SF-268 CNS; 15.5 µM in the experiment on BT-549 breast; 3.9 µM in the experiment with OVCAR-3 ovarian; 17.3 µM with MDA-MB-231 breast; 1.7 µM in the experiment with HOP-92 NSCLC; 1.28 µM with SK-MEL-5 melanoma. The TGI with OVCAR-5 ovarian was determined as 12.1 µM; in the experiment with RXF 393 renal, 11.8 µM; with 786-0 renal, 6.87 µM; in the experiment with LOX IMVI melanoma it was 2.37 µM.

In the case of `Fc1ccc(CNc2c3ccccc3nc3ccccc23)cc1`, the GI50 was 2.74 µM in the experiment with SF-268 CNS; 4.66 µM in the experiment with BT-549 breast; 2.37 µM with OVCAR-3 ovarian; 1.9 µM with MDA-MB-231 breast; 2.25 µM with HOP-92 NSCLC; 1.73 µM in the experiment on SK-MEL-5 melanoma. The GI50 was 2.41 µM in the experiment with OVCAR-5 ovarian, 2.07 µM with RXF 393 renal, 3.02 µM in the experiment on 786-0 renal and 1.55 µM in the experiment on LOX IMVI melanoma. Besides, the TGI in the experiment on SF-268 CNS turned out to be 9.49 µM; in the experiment on BT-549 breast, 18 µM; with OVCAR-3 ovarian, 5.43 µM; with MDA-MB-231 breast, 5.58 µM; with HOP-92 NSCLC, 11.5 µM; with SK-MEL-5 melanoma, 3.1 µM. The TGI in the experiment with OVCAR-5 ovarian amounted to 9.25 µM; in the experiment with RXF 393 renal it was 5.4 µM; with 786-0 renal it was 11.7 µM; in the experiment on LOX IMVI melanoma, 3.07 µM.

With `COc1ccc(Nc2c3c4c(cccc4[nH]c2=O)C(=O)c2ccccc2-3)cc1`, the GI50 was 0.0373 µM with SF-268 CNS; 0.0268 µM with BT-549 breast; less than 0.0158 µM in the experiment on OVCAR-3 ovarian; 0.0451 µM in the experiment on MDA-MB-231 breast; 0.332 µM in the experiment on HOP-92 NSCLC; less than 0.0172 µM in the experiment with SK-MEL-5 melanoma. In addition, the GI50 is 0.0479 µM in the experiment with OVCAR-5 ovarian, 0.0472 µM in the experiment with RXF 393 renal, 0.0334 µM in the experiment with 786-0 renal and 0.0239 µM in the experiment with LOX IMVI melanoma. For the same compound, the TGI in the experiment on SF-268 CNS is 18.6 µM; in the experiment with BT-549 breast, 0.0708 µM; in the experiment with OVCAR-3 ovarian it was less than 0.0257 µM; with HOP-92 NSCLC it was greater than 100 µM; in the experiment on SK-MEL-5 melanoma, 0.0451 µM; with OVCAR-5 ovarian, greater than 90.1 µM. Further, the TGI was greater than 100 µM in the experiment with RXF 393 renal, 19.6 µM with 786-0 renal and greater than 100 µM with LOX IMVI melanoma.

As to `CN(CCCCCl)P(=O)(OCc1ccc([N+](=O)[O-])o1)C(F)(F)c1ccc(CC(=O)N[C@@H](CC(=O)O)C(=O)N[C@@H](Cc2ccc(C(F)(F)P(=O)(OCc3ccc([N+](=O)[O-])o3)N(C)CCCCCl)cc2)C(N)=O)cc1` (some centres undefined), the GI50 is 42.9 µM in the experiment with SF-268 CNS; 18.8 µM with BT-549 breast; 37.6 µM with OVCAR-3 ovarian; 39.6 µM with MDA-MB-231 breast; 22.5 µM in the experiment on HOP-92 NSCLC; 43.8 µM in the experiment on SK-MEL-5 melanoma. Further, the GI50 with OVCAR-5 ovarian was greater than 100 µM; in the experiment with RXF 393 renal it was greater than 100 µM; in the experiment on 786-0 renal, greater than 100 µM; in the experiment with LOX IMVI melanoma, 28.2 µM. Moreover, the TGI is greater than 100 µM in the experiment on SF-268 CNS; 44.4 µM in the experiment with BT-549 breast; greater than 100 µM in the experiment on OVCAR-3 ovarian; greater than 100 µM with MDA-MB-231 breast; 52.3 µM in the experiment on HOP-92 NSCLC; greater than 100 µM in the experiment on SK-MEL-5 melanoma. Moreover, the TGI in the experiment on OVCAR-5 ovarian, in the experiment on RXF 393 renal, with 786-0 renal and in the experiment with LOX IMVI melanoma was greater than 100 µM in each case.
